Data from patent US10669284B2, “Fused thiazolopyrimidine derivatives as MNKS inhibitors” (LIFEARC, priority 2015, dated 2020).

What was measured:
Full-length human MNK1 = target: T1, Full-length human MNK1 (Homo sapiens, UniProt Q9BUB5, T385D); test: MNK1 biochemical IC50 assay (Caliper Mobility Shift Assay); details: read-out: P(IC50) MNK1 (converted)
T1 construct: GST (N); purchased Carna Biosciences 02-145; host or cells: baculovirus expression system

[1] = system: phosphorylation of eIF4E at ser209 in MV4.11 cell line; test: MNK cellular activity phospho-eIF4E detection assay (Alphascreen Surefire); format: cell-based; details: Homo sapiens; MV4.11 cell line, phospho-eIF4E (ser209) Alphascreen Surefire; read-out: P(IC50) elF4E (converted)
In short: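 AlphaScreen SureFire sandwich-immunoassay readout of phospho-eIF4E Ser209 in lysed MV4.11 cells; acceptor then donor beads, each 1.5 hr at room temperature. Signal normalised to untreated DMSO-only controls; duplicate curves, values averaged over at least 2 independent experiments.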

Full-length human MNK2 = target: T2, Full-length human MNK2 (Homo sapiens, UniProt Q9HBH9, T379D); test: MNK2 biochemical IC50 assay (Caliper Mobility Shift Assay); details: read-out: P(IC50) MNK2 (converted)
T2 construct: GST (N); purchased Carna Biosciences 02-146; host or cells: baculovirus expression system
T2 sequence (Q9HBH9 whole entry T379D): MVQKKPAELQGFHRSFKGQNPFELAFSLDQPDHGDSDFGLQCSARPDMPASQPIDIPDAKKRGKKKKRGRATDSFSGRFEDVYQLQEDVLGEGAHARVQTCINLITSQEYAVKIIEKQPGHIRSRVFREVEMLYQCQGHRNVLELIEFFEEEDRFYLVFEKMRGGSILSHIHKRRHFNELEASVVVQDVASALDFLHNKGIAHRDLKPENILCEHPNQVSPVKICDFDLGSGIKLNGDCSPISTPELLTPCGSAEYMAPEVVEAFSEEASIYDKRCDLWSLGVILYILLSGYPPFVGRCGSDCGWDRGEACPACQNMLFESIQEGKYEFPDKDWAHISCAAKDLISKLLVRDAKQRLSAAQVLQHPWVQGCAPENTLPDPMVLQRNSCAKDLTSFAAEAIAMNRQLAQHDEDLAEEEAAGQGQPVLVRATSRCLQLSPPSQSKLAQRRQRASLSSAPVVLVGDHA

T1 sequence (Q9BUB5 1-424 isoform Q9BUB5-2 T344D): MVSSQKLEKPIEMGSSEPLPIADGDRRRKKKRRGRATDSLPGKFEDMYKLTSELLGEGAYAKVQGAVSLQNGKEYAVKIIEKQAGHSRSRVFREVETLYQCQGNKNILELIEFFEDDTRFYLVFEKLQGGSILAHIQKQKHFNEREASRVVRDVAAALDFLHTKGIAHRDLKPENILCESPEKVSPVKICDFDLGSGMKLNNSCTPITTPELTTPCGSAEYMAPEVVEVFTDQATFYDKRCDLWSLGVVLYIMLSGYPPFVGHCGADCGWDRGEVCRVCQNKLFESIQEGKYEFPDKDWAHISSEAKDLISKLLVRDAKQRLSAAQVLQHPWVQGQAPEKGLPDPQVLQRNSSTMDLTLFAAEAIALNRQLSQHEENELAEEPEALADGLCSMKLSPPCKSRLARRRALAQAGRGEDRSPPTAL

| SMILES | IC50 (Full-length human MNK1) [nM] | IC50 [1] [nM] | IC50 (Full-length human MNK2) [nM] |
| --- | --- | --- | --- |
| O=C(NCC1CCNCC1)c1nc2c(Nc3ccccc3-c3ccco3)ncnc2s1 [Example 62, 7-[2-(2-furyl)anilino]-N-(4-piperidylmethyl)thiazolo[5,4-d]pyrimidine-2-carboxamide] | 631 | 316 | 316 |
| C[C@H]1Cc2ccccc2N1c1ncnc2sc(C(=O)NC3CCOCC3)nc12 [Example 133, 7-[(2S)-2-methylindolin-1-yl]-N-tetrahydropyran-4-yl-thiazolo[5,4-d]pyrimidine-2-carboxamide] | 79.4 | 50.1 | 39.8 |
| O=C(NC1CCOCC1)c1nc2c(N3CCc4ccccc43)ncnc2s1 [Example 106, 7-Indolin-1-yl-N-tetrahydropyran-4-yl-thiazolo[5,4-d]pyrimidine-2-carboxamide] | 12.6 | 20 | 7.94 |
| CN(C)CCCNC(=O)c1nc2c(N3CCc4cccc(F)c43)ncnc2s1 [Example 92, N-[3-(dimethylamino)propyl]-7-(7-fluoroindolin-1-yl)thiazolo[5,4-d]pyrimidine-2-carboxamide] | 158 | 251 | 126 |
| CC1CN(c2ncnc3sc(C(=O)NC4CCOCC4)nc23)c2ccccc21 (stereo not drawn) [Example 125, 7-(3-Methylindolin-1-yl)-N-tetrahydropyran-4-yl-thiazolo[5,4-d]pyrimidine-2-carboxamide] | 3.16 | 3.98 | 3.98 |
| O=C(NC1CCOCC1)c1nc2c(N3CC(CCN4CCCC4)c4cc(F)ccc43)ncnc2s1 (stereo not drawn) [Example 149, 7-[5-fluoro-3-(2-pyrrolidin-1-ylethyl)indolin-1-yl]-N-tetrahydropyran-4-yl-thiazolo[5,4-d]pyrimidine-2-carboxamide] | 31.6 | 63.1 | 50.1 |
| CN1CCC2(CC1)CN(c1ncnc3sc(C(=O)NC4CCOCC4)nc13)c1ccccc12 [Example 40, 7-(1′-Methylspiro[indole-3,4′-piperidin]-1(2H)-yl)-N-(tetrahydro-2H-pyran-4-yl)[1,3]thiazolo[5,4-d]pyrimidine-2-carboxamide] | 12.6 | 50.1 | 20 |
| O=C(NCC1CCNCC1)c1nc2c(Nc3ccc(F)cc3OC3CCCC3)ncnc2s1 [Example 51, 7-[2-(cyclopentoxy)-4-fluoro-anilino]-N-(4-piperidylmethyl)thiazolo[5,4-d]pyrimidine-2-carboxamide] | 126 | 126 | 100 |
| Fc1ccc2c(c1)CCN2c1ncnc2sc(N3CCOCC3)nc12 [Example 87, 4-[7-(5-fluoroindolin-1-yl)thiazolo[5,4-d]pyrimidin-2-yl]morpholine] | 126 | 200 | 79.4 |
| CN1CCN(C(=O)c2nc3c(N4CCc5ccccc54)ncnc3s2)CC1 [Example 96, (7-indolin-1-ylthiazolo[5,4-d]pyrimidin-2-yl)-(4-methylpiperazin-1-yl)methanone] | 398 | 501 | 251 |
| CNC(=O)c1nc2c(N3CC(C)c4ccccc43)ncnc2s1 (stereo not drawn) [Example 156, N-methyl-7-(3-methylindolin-1-yl)thiazolo[5,4-d]pyrimidine-2-carboxamide] | 10 | 5.01 | 7.94 |
| CNCCC1(C)CN(c2ncnc3sc(C(=O)NC4CCOCC4)nc23)c2ccccc21 (stereo not drawn) [Example 118, 7-[3-Methyl-3-[2-(methylamino)ethyl]indolin-1-yl]-N-tetrahydropyran-4-yl-thiazolo[5,4-d]pyrimidine-2-carboxamide] | 126 | 251 | 158 |
| O=C(NC1CCOCC1)c1nc2c(N3CCc4cc(C(F)(F)F)ccc43)ncnc2s1 [Example 112, N-(tetrahydro-2H-pyran-4-yl)-7-(5-(trifluoromethyl)indolin-1-yl)thiazolo[5,4-d]pyrimidine-2-carboxamide] | 200 | 316 | 126 |
| CN(C)CCCOc1nc2c(N3CCc4cc(F)ccc43)ncnc2s1 [Example 89, 3-((7-(5-Fluoroindolin-1-yl)thiazolo[5,4-d]pyrimidin-2-yl)oxy)-N,N-dimethylpropan-1-amine] | 39.8 | 200 | 63.1 |
| CC1Cc2ccccc2N1c1ncnc2sc(C(=O)NC3CCN(C)CC3)nc12 (stereo not drawn) [Example 123, 7-(2-Methylindolin-1-yl)-N-(1-methyl-4-piperidyl)thiazolo[5,4-d]pyrimidine-2-carboxamide] | 25.1 | 20 | 15.8 |

Other lines, results leading:

| IC50 (Full-length human MNK1) [nM] | IC50 [1] [nM] | IC50 (Full-length human MNK2) [nM] | SMILES |
| --- | --- | --- | --- |
| 100 | 158 | 100 | CN(C)CCCNC(=O)c1nc2c(Nc3ccc(F)cc3O[C@@H]3CCCOC3)ncnc2s1 [Example 16, N-[3-(dimethylamino)propyl]-7-[4-fluoro-2-[(3R)-tetrahydropyran-3-yl]oxy-anilino]thiazolo[5,4-d]pyrimidine-2-carboxamide] |
| 316 | 501 | 126 | CNC(=O)c1nc2c(N3CCc4cc(C(F)(F)F)ccc43)ncnc2s1 [Example 158] |
| 3.16 | 3.98 | 3.98 | O=C(NC1CCNCC1)c1nc2c(N3CCc4ccccc43)ncnc2s1 [Example 98, 7-indolin-1-yl-N-(4-piperidyl)thiazolo[5,4-d]pyrimidine-2-carboxamide] |
| 100 | 39.8 | 31.6 | CNCCCNC(=O)c1nc2c(N3c4ccccc4C[C@@H]3C)ncnc2s1 [Example 131, N-[3-(methylamino)propyl]-7-[(2S)-2-methylindolin-1-yl]thiazolo[5,4-d]pyrimidine-2-carboxamide] |
| 63.1 | 20 | 39.8 | CC(C)Oc1cc(F)ccc1Nc1ncnc2sc(CO)nc12 [Example 48, [7-(4-Fluoro-2-isopropoxy-anilino)thiazolo[5,4-d]pyrimidin-2-yl]methanol] |
| 200 | 158 | 126 | O=C(NCC1CCNCC1)c1nc2c(N3c4ccccc4C[C@H]3CO)ncnc2s1 [Example 137] |
| 5.01 | 15.8 | 5.01 | CN(C)CCNC(=O)c1nc2c(N3CCc4cc(F)ccc43)ncnc2s1 [Example 73, N-[2-(dimethylamino)ethyl]-7-(5-fluoroindolin-1-yl)thiazolo[5,4-d]pyrimidine-2-carboxamide] |
| 31.6 | 39.8 | 25.1 | CC1Cc2ccccc2N1c1ncnc2sc(C(=O)NCC3CCNCC3)nc12 (stereo in doubt) [Example 134, 7-[(2R)-2-methylindolin-1-yl]-N-(4-piperidyl-methyl)thiazolo[5,4-d]pyrimidine-2-carboxamide] |
| 5.01 | 10 | 3.98 | O=C(NC1CCOCC1)c1nc2c(N3CCc4cc(F)ccc43)ncnc2s1 [Example 66, 7-(5-fluoroindolin-1-yl)-N-tetrahydropyran-4-yl-thiazolo[5,4-d]pyrimidine-2-carboxamide] |
| 2 | 3.16 | 2 | O=C(NC1CCNCC1)c1nc2c(N3CCc4cc(F)ccc43)ncnc2s1 [Example 78, 7-(5-fluoroindolin-1-yl)-N-(4-piperidyl)thiazolo[5,4-d]pyrimidine-2-carboxamide] |
